Patent publication US9011820B2, “Screening tool for antiviral agents” (Saint Louis University, priority 2007, dated 2015)
Where two headings read alike, the source gives them in different places.

What was measured:
Ad5 [1] = assay: HDP-CDV in Ad5-infected immunosuppressed mice; assay type: in vivo; conditions: daily 2.5 mg/kg oral gavage
Experimental: Immunocompetent mice and mice immunosuppressed with CP were injected intravenously with 1.5×10^11 vp/kg of Ad5 or AdCMVpA, a replication defective adenovirus. Half of the animals in each group were treated via oral gavage with daily doses of 2.5 mg/kg of HDP-CDV, starting a day before virus injection. At the indicated times, mice were sacrificed and infectious virus titers in the liver were determined.

Ad5 [2] = assay: HDP-CDV in Ad5-infected normal and CP-immunosuppressed Syrian hamsters; assay type: in vivo; conditions: 2.5 mg/kg oral gavage daily for 6 days, Days 3 and 6
Experimental: FIGS. 12A-12D are graphical representations illustrating HDP-CDV decreasing adenovirus induced liver toxicity and viral load.
Syrian hamsters (females, average weight 98 g) were immunosuppressed with twice weekly injections of cyclophosphamide (starting on Day −6; 140 mg/kg i.p. for the first dose, then 100 mg/kg). On Day 0, the animals were injected intravenously (into the jugular vein) with 1.9×10^12 vp/kg (ca. 3×10^10 PFU/animal) of Ad5 or AdCMVpA, and half of them were treated with HDPCDV (2.5 mg/kg via oral gavage daily for 6 days, starting on Day −1). On Days 3 and 6, hamsters were sacrificed and their sera were analyzed for transaminases (panel A=ALT; panel B=AST) and bilirubin (panel C). Infectious virus titers in the liver were determined, by TCID50 assays; the dashed line in the graph marks the threshold of quantifiability, horizontal lines represent group means, n-4, except for clinical chemistry for the Ad5 CP group on Day 6 (n=2); the error bars represent standard deviation.

[3] = tested on: Ad serotypes from Species A, B, C, D, E, and F in HEp-2 cells; conditions: cited from earlier work
[4] = in vivo; cited from earlier work
VRX-007 = assay: Cidofovir inhibition of VRX-007 replication in A549 cells (crystal violet staining); assay type: cell-based, human adenovirus; conditions: 10 or 0.1 PFU/cell, stained seven days post infection
Experimental: A549 cells were mock-infected or infected with 10 or 0.1 plaque-forming units (PFU)/cell of VRX-007. Concomitantly, cidofovir was added to the medium at the indicated concentrations. The cells were stained with crystal violet dye at seven days post infection. Cidofovir has shown some efficacy in the rabbit and cotton rat models of ocular models of Ad5 infection.

Ad5 [5] = conditions: cotton rat; cited from earlier work
Ad5 [6] = conditions: rabbit; cited from earlier work
Ad ocular infections = conditions: large multi-center trial, humans, cited from earlier work
Ad = conditions: cited from earlier work
[7] = tested on: Ad serotypes 1, 2, 5, and 8; conditions: cited from earlier work
HaK tumors = assay type: in vivo, hamsters; conditions: CP twice weekly
Experimental: In an illustrative example, a tumor experiment in hamsters immunosuppressed with cyclophosphamide (CP) was conducted. Hamsters with very large (about 1.1 ml mean) established tumors (formed by the hamster renal cancer cell line named HaK) were treated with CP on day 1, then starting on day 4 the tumors were injected with VRX-007, Ad5, or buffer. CP was administered twice weekly throughout the study. […] Established large, about 1.1 ml, subcutaneous HaK tumors were injected intratumorally (6 injections, 1×10^10 PFU each) with VRX-007, wild-type Ad5, or vehicle (saline only). For each of these treatments, one group was immunosuppressed with CP and one group remained immunocompetent. Tumor volumes were measured with digital calipers twice per week. […] The tumors are from the 42 day time point.

[8] = prospective study, eight pediatric stem cell transplant patients

## CCCCCCCCCCCCCCCCOCCCOP(=O)(O)CO[C@H](CO)Cn1ccc(N)nc1=O [HDP-CDV, Hexadecyloxypropyl-cidofovir]
Ad5 [1]
  replication of Ad5 (infectious virus titers in the liver): suppressing the replication
Ad5 [2]
  adenoviral loads (infectious virus titers in the liver, TCID50): effectively and significantly reduces
  liver toxicity (ALT, AST, bilirubin): effectively and significantly reduces liver toxicity

## Nc1ccn(C[C@@H](CO)OCP(=O)(O)O)c(=O)n1 [cidofovir, (S)-9-[3-hydroxy-2-(phosphonomethyloxy)propyl] cytosine]
[3]
  inhibition of Ad replication by species: inhibited replication in HEp-2 cells of serotypes from Species A, B, D, E, and F
[4]
  oral bioavailability: poor oral bioavailability
VRX-007
  inhibition of replication of VRX-007: inhibits the replication
Ad5 [5]
  efficacy in ocular model of Ad5 infection: some efficacy
Ad5 [6]
  efficacy in ocular model of Ad5 infection: some efficacy
Ad ocular infections
  efficacy against Ad ocular infections: Significant efficacy
Ad ocular infections; trial discontinued
  efficacy/toxicity ratio: narrow efficacy/toxicity ratio
Ad; accumulation of the drug in renal proximal tubules
  toxicity of systemic use: nephrotoxicity
Ad; bone marrow transplant patients
  efficacy against Ad-associated hemorrhagic cystitis and renal dysfunction: effective
Ad; disseminated Ad in pediatric liver transplant patient, Ad7 in B cell lymphoma adult patient with meningoencephalitis
  resolution of Ad infection in case reports: seemed to resolve
Ad; patients immunosuppressed because of stem cell and bone marrow transplants
  efficacy against Ad: some efficacy
Ad; [8]
  dose-limiting nephrotoxicity: without dose-limiting nephrotoxicity
  suppression of Ad: seemed to provide long term suppression of Ad
[7]
  inhibition of Ad replication in cell culture: potent, nontoxic inhibitor

## NC(=O)c1ncn([C@@H]2O[C@H](CO)[C@@H](O)[C@H]2O)n1 [ribavirin]
[3]
  inhibition of Ad replication by species: Only Species C was inhibited

## O=P1(N(CCCl)CCCl)NCCCO1 (stereo not shown) [CP, cyclophosphamide]
CP twice weekly
  total white blood cell (WBC) count: dropped to very low levels by day 12
CP-treated hamsters, end of experiment (42 days), 15.95 g/dl at the start
  hemoglobin level (average): 6.95 g/dL
CP-treated hamsters, end of experiment, 8.39×10^6/mm^3 at the start
  red blood cells (RBC): 3.96×10^6 mm^3
HaK tumors
  growth of buffer-injected tumors: did not affect growth
